In patent US20130071897A1, “METHOD FOR CONTROLLING UNDESIRABLE BYPRODUCTS FORMATION CAUSED BY CONTAMINATING ORGANISMS IN THE PRODUCTION OF ETHANOL FROM SYNGAS” (COSKATA, INC., priority 2011, published 2013):
Values joined by “and” are separate entries in the source; they are usually repeats but may differ in a detail not shown here. Equal entries are not always repeated.

Columns and labels:
acyl-CoA dehydrogenases = assay: In vitro acyl-CoA dehydrogenase ferrocenium assay with C. tyrobutyricum cell-free extract; type: biochemical; settings: 0.5 to 10 mM compound, rate of ferrocenium reduction at 300 nm
How it was run: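 Lysozyme-lysed cell-free extract of early-log C. tyrobutyricum was assayed anaerobically at laboratory temperature in 50 mM Tris-HCl pH 7.6 with 0.05 mM butyryl-CoA, FAD and 0.4 mM ferrocenium. Ferrocenium reduction was followed at 300 nm over 10–20 min, and the rate slope was plotted against compound concentration to give a dose-response slope.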

C. carboxidivorans = assay: Product profiles of C. carboxidivorans cultures by GC-MSD; type: cell-based; settings: 500 and 1000 ppm; 54 hour cultures
Experimental: Product profiles were determined on the C. carboxidivorans cultures that grew in the presence of compound A. A GC-MSD was performed on 54 hour cultures and product distributions were calculated based on the resultant areas of the output (See FIG. 2). In cultures with no compound A addition, the distribution of C2, C4 and C6 acids and alcohols was similar in both samples. As the compound A concentration increased the amount of C2, particularly the alcohols, increased. […] Thus, such crotonate derivatives can effectively limit the amount of butyl impurity accumulation in the fermentation zone from heteroacetogens which can compete effectively in syngas cultures with homoacetogenic bacteria.

[1] = system: Clostridium carboxydivorans; assay: Balch tube batch growth of heteroacetogenic bacteria Clostridium carboxydivorans on fructose, optical density; type: cell-based; parameters: key to Optical density valuation of C. carboxidivorans: +: bacterial growth to an OD of approximately 1.8; +/−: one duplicate test tube showed a + indication and the other showed an optical density of less than 0.5; settings: for Optical density valuation of C. carboxidivorans: added 20 h after inoculation; for Inhibition effect for reducing butyrogen growth: summary of Examples 1-5
Experimental: Similar experiments were conducted to determine the effect of the crotonate derivatives on heteroacetogenic bacteria. Selected crotonate derivatives were tested in a series of batch experiments to determine the growth response of butyrogens to the presence of the compounds at varying concentrations. The batch experiments were all conducted by anoxically filling a 20 ml Balch tube with 5 ml of a fermentation medium having the composition given in Tables 2 and 3. The media included 0.5 v/v final concentration of a fructose substrate. For each of the crotonate concentrations tested, duplicate test tubes were prepared.
Each tube was inoculated with 0.5 ml of the heteroacetogenic bacteria Clostridium carboxydivorans. The tubes were maintained at a temperature of 37° C. At a time 20 hours after the inoculation of the bacteria different crotonate derivatives from Table 1 were added to different tubes in the amounts indicated in Table 7. This was at a time of early to mid-log phase growth. Each fermentation of the bacteria in the media at the different concentration of crotonate derivatives were allowed to progress and were monitored to determine the bacteria growth at selected intervals of time varying from approximately 20 hours to 54 hours. Growth at the different intervals was measured by reading the optical density (OD) of the fermentation liquid. Optical density was measured as described in Example 1. The ability of a tube fermentation at a particular concentration of crotonate derivative to reach a predetermined optical density was recorded in Table 7. Table 7 indicates the presence of bacterial growth to an OD of approximately 1.8 with a “+”.
Compound A was tested again in set of experiments in all respects the same as that described for Example 4 except that compound A was added to Balch tubes in the amounts indicated in Table 7 at a time 5.5 hours after the inoculation of the bacteria. This was at a time in early log phase growth. In this case the Balch tube that contained no compound A reached an OD of 2 after 29 hours or less.

[2] = system: Clostridium tyrobutyricum; assay: Butyric acid by gas chromatography in Clostridium tyrobutyricum batch fermentations; type: cell-based; settings: 5 mM, duplicates A and B
Experimental: The concentration of butyric acid is determined by gas chromatography for several of the above samples at the stated points in time. The butyrate production is calculated based upon peak area calculations generated by the gas chromatograph. At 11 hours, the concentration of butyric acid for each of the controls is about 0.95 gram per liter, and the concentration of butyric acid for the samples containing 500 ppm of the inhibitor are about 0.6 gram per liter.
The concentration of butyric acid is determined by gas chromatography using the procedure set forth in Example 13. The control is reported only in Table 18.

| Structure (SMILES) | Dose-Response Slope (acyl-CoA dehydrogenases) | Product distribution of C2, C4 and C6 acids and alcohols (C. carboxidivorans) | Optical density valuation of C. carboxidivorans ([1]; 100 ppm(m)) | OD of C. carboxidivorans tube fermentations ([1]; 500 and 1000 ppm added 5.5 hours after inoculation) | Optical density valuation of C. carboxidivorans ([1]; 500 ppm(m)) | Optical density valuation of C. carboxidivorans ([1]; 1000 ppm(m)) | Inhibition effect for reducing butyrogen growth [1] | Dose-Response Slope (acyl-CoA dehydrogenases; listed as Ethyl 4,4,4-trifluoro-3-(trifluoromethyl)crotonate) | Butyrate Production ([2]; 4.5 Hours) [grams per liter] | Butyrate Production ([2]; 6 Hours) | Butyrate Production ([2]; 24 Hours) |
| --- | --- | --- | --- | --- | --- | --- | --- | --- | --- | --- | --- |
| CCOC(=O)/C=C(\N)C(F)(F)F [B, ethyl-3-amino-4,4,4-trifluorocrotonate] | 25 |  |  |  |  |  |  |  |  |  |  |
| CCOC(=O)C=C(C(F)(F)F)C(F)(F)F [Compound A, ethyl 4,4,4-trifluoro-3-(trifluoromethyl)crotonate] | about 8 | virtually all the product observed was the C2 alcohol | + (bacterial growth to an OD of approximately 1.8) | ≤ 0.5 | + (bacterial growth to an OD of approximately 1.8) | + (bacterial growth to an OD of approximately 1.8) | showed inhibition effect | 8 | 0.04 | 0.06 grams per liter and 0.05 grams per liter | 0.10 grams per liter and 0.08 grams per liter |
| O=C(O)C=C(C(F)(F)F)C(F)(F)F [D, 4,4,4-trifluoro-3-(trifluoromethyl)crotonic acid] |  |  | + (bacterial growth to an OD of approximately 1.8) |  | + (bacterial growth to an OD of approximately 1.8) | +/− | showed inhibition effect |  |  |  |  |
